From patent US9521850B2 (University of Florida Research Foundation, Incorporated, priority 2012, dated 2016)
≈ marks a conversion by molar mass, not a printed value.

How the values were obtained:
Xanthomonas citri = test: microbe, parasite or virus in culture; format: cell-based, Xanthomonas citri subsp. citri
Bradyrhizobium japonicum = test: microbe, parasite or virus in culture; format: cell-based
SecA of Ca. L. asiaticus = SecA of Ca. L. asiaticus (Candidatus Liberibacter asiaticus, UniProt A0ABM5NFG5); test: biochemical
Mesorhizobium loti = test: microbe, parasite or virus in culture; format: cell-based
A. tumefaciens = test: microbe, parasite or virus in culture; format: cell-based; conditions: Agrobacterium tumefaciens, 24 h
[1] = test system: Agrobacterium tumefaciens; test: microbe, parasite or virus in culture; format: cell-based
Rhizobium etli = test: microbe, parasite or virus in culture; format: cell-based
Sinorhizobium meliloti = test: microbe, parasite or virus in culture; format: cell-based
Liberibacter crescens = test: microbe, parasite or virus in culture; format: cell-based
CLAS = CLAS transmission rate using graft-based approach (Example 3); format: in vivo; conditions: budwood treated at 500 μg/ml, grafted onto Valencia trees
Protocol: HLB-infected budwoods were collected in HLB infected grove in teaching block at CREC. The presence of CLAS titers in budwood was confirmed by qPCR.
C16 and streptomycin were applied at the rate of 500 μg/ml; water-treated budwood was used as check. The budwoods were placed in a glass bottle containing either treatment or water as check. The glass bottles were kept in a ventilation hood with light on to increase the evaporation rate, therefore, promoting the uptake of antibiotics. Leaf and bark samples were collected from each budwood and 100 mg were accurately weighed and used for DNA extraction with Promega genomic DNA extraction kit. CLAS populations in each sample were determined using standard qPCR protocol. Each DNA sample was run in triplicate wells.
After overnight treatment, the antibiotic-treated budwood was grafted onto 2-3 years old Valencia trees. A total of 15 trees were grafted for each treatment. […] Four leaves from the main stem of Valencia trees were sampled for DNA extraction and determination of CLAS populations.

SMILES	MBC (Xanthomonas citri) [µg/mL]	MIC (Xanthomonas citri) [µg/mL]	MBC (Bradyrhizobium japonicum; 24 hrs) [µg/mL]	MIC (Bradyrhizobium japonicum; 24 hrs) [µg/mL]	MBC (Bradyrhizobium japonicum; 120 hrs) [µg/mL]	MIC (Bradyrhizobium japonicum; 120 hrs) [µg/mL]	MBC (Mesorhizobium loti) [µg/mL]	MIC (Mesorhizobium loti) [µg/mL]	MBC (A. tumefaciens) [µg/mL]	MBC [1] [µg/mL]	MIC [1] [µg/mL]	MBC (Rhizobium etli; 24 hrs) [µg/mL]	MIC (Rhizobium etli; 24 hrs) [µg/mL]	MBC (Rhizobium etli; 120 hrs) [µg/mL]	MIC (Rhizobium etli; 120 hrs) [µg/mL]	MBC (Sinorhizobium meliloti) [µg/mL]	MIC (Sinorhizobium meliloti) [µg/mL]	MBC (Liberibacter crescens; 24 h) [µg/mL]	MIC (Liberibacter crescens; 24 h) [µg/mL]	MBC (Liberibacter crescens; 120 h) [µg/mL]	other results
O=C1CCCC2=C1C(c1cccs1)Nc1ccc(C(=O)c3ccccc3)cc1N2 (centres unmarked) [Compound C20, 7-benzoyl-11-(2-thienyl)-2,3,4,5,10,11-hexahydro-1H-diabenzo[b,e] [1,4]diazepin-1-one]	32 (≈ 79.9 µM)	16 (≈ 39.9 µM)	32 (≈ 79.9 µM)	16 (≈ 39.9 µM)	64 (≈ 160 µM)	16 (≈ 39.9 µM)	16 (≈ 39.9 µM)	8 (≈ 20 µM)	256 (≈ 639 µM)	128 (≈ 320 µM)	32 (≈ 79.9 µM)	64 (≈ 160 µM)	32 (≈ 79.9 µM)	64 (≈ 160 µM)	32 (≈ 79.9 µM)	16 (≈ 39.9 µM)	16 (≈ 39.9 µM)	16 (≈ 39.9 µM)	16 (≈ 39.9 µM)	32 (≈ 79.9 µM)	IC50 (SecA of Ca. L. asiaticus): 0.44 µM; MIC (Liberibacter crescens; 120 h): 32 µg/mL (≈ 79.9 µM)
COc1ccc2nc(NC(=O)CSc3nc4cc(C)ccc4[nH]3)sc2c1 [Compound C19, N-(6-methoxy-1,3-benzo-thiazol-2-yl)-2-[(5-methyl-1H-benz-imidazol-2-yl)thio]acetamide]	64 (≈ 166 µM)	32 (≈ 83.2 µM)	32 (≈ 83.2 µM)	32 (≈ 83.2 µM)	64 (≈ 166 µM)	64 (≈ 166 µM)	32 (≈ 83.2 µM)	16 (≈ 41.6 µM)	128 (≈ 333 µM)	128 (≈ 333 µM)	32 (≈ 83.2 µM)	32 (≈ 83.2 µM)	32 (≈ 83.2 µM)	64 (≈ 166 µM)	32 (≈ 83.2 µM)	64 (≈ 166 µM)	32 (≈ 83.2 µM)	8 (≈ 20.8 µM)	8 (≈ 20.8 µM)	16 (≈ 41.6 µM)	IC50 (SecA of Ca. L. asiaticus): 0.64 µM; MIC (Liberibacter crescens; 120 h): 16 µg/mL (≈ 41.6 µM)
COc1ccc(NC(=O)C2(NC(=O)c3ccc(-n4cnnn4)cc3)CCCCC2)cc1 [Compound C18, N-(1-{[(4-methoxy-phenyl)amino]carbonyl}cyclo-hexyl)-4-(1H-tetrazol-1-yl)benzamide]	32 (≈ 76.1 µM)	16 (≈ 38.1 µM)	8 (≈ 19 µM)	8 (≈ 19 µM)	16 (≈ 38.1 µM)	16 (≈ 38.1 µM)	32 (≈ 76.1 µM)	16 (≈ 38.1 µM)	256 (≈ 609 µM)	128 (≈ 304 µM)	32 (≈ 76.1 µM)	16 (≈ 38.1 µM)	16 (≈ 38.1 µM)	32 (≈ 76.1 µM)	32 (≈ 76.1 µM)	64 (≈ 152 µM)	32 (≈ 76.1 µM)	8 (≈ 19 µM)	8 (≈ 19 µM)	16 (≈ 38.1 µM)	IC50 (SecA of Ca. L. asiaticus): 0.48 µM; MIC (Liberibacter crescens; 120 h): 16 µg/mL (≈ 38.1 µM)
[H]/N=C(/N)N[C@H]1[C@H](O)[C@@H](O)[C@H](O[C@@H]2O[C@@H](C)[C@](O)(C=O)[C@H]2O[C@@H]2O[C@@H](CO)[C@H](O)[C@@H](O)[C@@H]2NC)[C@@H](N/C(N)=N\[H])[C@@H]1O [Streptomycin, reference compound]	32 (≈ 55 µM)	32 (≈ 55 µM)	32 (≈ 55 µM)	32 (≈ 55 µM)	32 (≈ 55 µM)	32 (≈ 55 µM)	32 (≈ 55 µM)	16 (≈ 27.5 µM)	64 (≈ 110 µM)	128 (≈ 220 µM)	64 (≈ 110 µM)	4 (≈ 6.88 µM)	4 (≈ 6.88 µM)	16 (≈ 27.5 µM)	16 (≈ 27.5 µM)	128 (≈ 220 µM)	64 (≈ 110 µM)	16 (≈ 27.5 µM)	16 (≈ 27.5 µM)	32 (≈ 55 µM)	CLAS transmission rate (% trees tested positive for CLAS) (CLAS; 3 months after grafting): 13.3%; CLAS transmission rate (% trees tested positive for CLAS) (CLAS; 6 months after grafting): 66.7%; MIC (Liberibacter crescens; 120 h): 32 µg/mL (≈ 55 µM)
